# In patent publication US12383539B2 (Cavion, Inc., priority 2018, dated 2025):
# Columns and labels:
# [1] = tested on: patients with essential tremor; assay: T-CALM: TETRAS performance subscale (TETRAS-PS); conditions: for TETRAS-PS total score, change from baseline to Day 28, LS mean difference from placebo (95% CI) / TETRAS-PS total score, change from baseline to Day 28, LS mean (SE): ANCOVA; for TETRAS-PS total score, change from baseline to Day 28, LS mean (SE): multiple imputation
# [2] = tested on: patients with essential tremor; assay: T-CALM: Kinesia ONE accelerometry score; format: in vivo, human
# Excerpt: Kinesia One platform is deployed in T-CALM as a digital marker of tremor severity. Kinesia One is FDA cleared for monitoring Parkinson's motor symptom severity with only limited data on assessment of tremor in ET patients. The algorithmically derived score was developed primarily in Parkinson's disease algorithms and has limited validation in ET (see, e.g., Hoffman et al., 2011 Conf Proc IEEE Eng Med Biol Soc. 2011:4378-81). The Kinesia One device is placed on the index finger of each ET patient and worn in the clinic after completion of the TETRAS Performance subscale. Four tasks are performed by the patient on the left and right sides to assess resting, postural, kinetic and lateral wing beating tremor. The Kinesia One score change in score from baseline to day 28 is evaluated as a secondary efficacy endpoint. The Kinesia One data is also utilized for exploratory analysis of efficacy on the change from baseline to day 15 for accelerometry score and for change from baseline on amplitude measures for days 15 and 28. Consistent finger sensor placement and consistent task execution are critical factors for valid Kinesia One scores.
# Both sets of scores were statistically analyzed.
# [3] = tested on: patients with essential tremor; assay: T-CALM: Patient Global Impression of Change (PGIC); format: in vivo, human; conditions: for PGIC score, LS mean (SE) / PGIC score, LS mean difference from placebo (95% CI): ANCOVA
# Excerpt: Treatment success as measured by PGIC was summarized using descriptive statistics.
# The Patient Global Impression of Change (PGIC) will quantify a patient's impression of improvement or decline over time with respect to ET treatment (see, e.g., Guy, Assessment Manual for Psychopharmacology. Rockville, MD: Department of Health, Education, and Welfare Public Health Service Alcohol, Drug Abuse, and Mental Health Administration, 1976). The patient will use the PGIC scale to assess current health status versus initiation of treatment and calculate the difference.
# [4] = tested on: patients with essential tremor; assay: T-CALM: ECG, vital signs, laboratory and examination safety assessments; format: in vivo, human
# Method: Electrocardiogram results were calculated as the average of the triplicate records at each time point. Baseline was defined as the mean of the triplicate values obtained pre-dose at Day 1. If this value was not available, the mean of the triplicate records obtained at screening were used.
# Safety procedures involved collection of all TEAEs (treatment-emergent adverse events) coded into the Medical Dictionary for Regulatory Activities (MedDRA) version 20. Adverse events were classified by maximum severity, drug-related adverse events, serious adverse events, and adverse events leading to patient discontinuation.
# [5] = Food effect: MR2 capsules fed vs fasted; format: in vivo, human; conditions: MR2 CX-8998, single 8 mg dose
# Excerpt: Subjects will be screened for study eligibility within 28 days before administration of the first dose of study drug. Subjects who meet the study eligibility criteria will be admitted to the clinical research unit in the afternoon of the day before administration of the first dose of study drug (Period 1/Day −1).
smiles,measurement,setting,value
CC(C)c1ccc(CC(=O)N[C@H](C)c2ccc(OCC(F)(F)F)cn2)cc1 [CX-8998],"responders: improvement of at least 5 points by TETRAS-PS score, %",[1]; Day 15,(30.8%)
same,"TETRAS-PS change from baseline 0 change: subjects, number (%)","[1]; Day 15, N = 39",2 (5.1%)
same,"TETRAS-PS change from baseline >0 to 1 point improvement: subjects, number (%)","[1]; Day 15, N = 39",3 (7.7%)
same,"TETRAS-PS change from baseline >0 to 1 point worsening: subjects, number (%)","[1]; Day 15, N = 39",2 (5.1%)
same,"TETRAS-PS change from baseline >1 to 2.5 point improvement: subjects, number (%)","[1]; Day 15, N = 39",4 (10.3%)
same,"TETRAS-PS change from baseline >1 to 2.5 point worsening: subjects, number (%)","[1]; Day 15, N = 39",5 (12.8%)
same,"TETRAS-PS change from baseline >2.5 to 5 point improvement: subjects, number (%)","[1]; Day 15, N = 39",10 (25.6%)
same,"TETRAS-PS change from baseline >2.5 to 5 point worsening: subjects, number (%)","[1]; Day 15, N = 39",2 (5.1%)
same,"TETRAS-PS change from baseline >5 to 10 point improvement: subjects, number (%)","[1]; Day 15, N = 39",8 (20.5%)
same,"TETRAS-PS change from baseline >5 to 10 point worsening: subjects, number (%)","[1]; Day 15, N = 39",0
same,"TETRAS-PS change from baseline >10 point improvement: subjects, number (%)","[1]; Day 15, N = 39",3 (7.7%)
same,"TETRAS-PS change from baseline >10 point worsening: subjects, number (%)","[1]; Day 15, N = 39",0
same,"responders: improvement of at least 5 points by TETRAS-PS score, %",[1]; Day 28,(43.2%)
same,"responders: improvement of at least 5 points by TETRAS-PS score, number","[1]; Day 28, N 37",16
same,"TETRAS-PS change from baseline 0 change: subjects, number (%)","[1]; Day 28, N = 37",1 (2.6%)
same,"TETRAS-PS change from baseline >0 to 1 point improvement: subjects, number (%)","[1]; Day 28, N = 37",6 (15.4%)
same,"TETRAS-PS change from baseline >0 to 1 point worsening: subjects, number (%)","[1]; Day 28, N = 37",2 (5.1%)
same,"TETRAS-PS change from baseline >1 to 2.5 point improvement: subjects, number (%)","[1]; Day 28, N = 37",5 (12.8%)
same,"TETRAS-PS change from baseline >1 to 2.5 point worsening: subjects, number (%)","[1]; Day 28, N = 37",1 (2.6%)
same,"TETRAS-PS change from baseline >2.5 to 5 point improvement: subjects, number (%)","[1]; Day 28, N = 37",11 (28.2%)
same,"TETRAS-PS change from baseline >2.5 to 5 point worsening: subjects, number (%)","[1]; Day 28, N = 37",1 (2.6%)
same,"TETRAS-PS change from baseline >5 to 10 point improvement: subjects, number (%)","[1]; Day 28, N = 37",8 (20.5%)
same,"TETRAS-PS change from baseline >5 to 10 point worsening: subjects, number (%)","[1]; Day 28, N = 37",0
same,"TETRAS-PS change from baseline >10 point improvement: subjects, number (%)","[1]; Day 28, N = 37",4 (10.3%)
same,"TETRAS-PS change from baseline >10 point worsening: subjects, number (%)","[1]; Day 28, N = 37",0
same,"TETRAS-PS scored by investigators (in person), change from baseline, LS mean (±SE)","[1]; Day 28, analysis of Example 25",−4.8±0.80
same,"TETRAS-PS scored by independent video raters, change from baseline, LS mean (±SE)","[1]; Day 28, primary endpoint",−1.8±0.81
same,"TETRAS-PS total score, Mean (SD)","[1]; Day 28, Investigator Rated",23.6 (5.50)
same,"TETRAS-PS total score, change from baseline to Day 28, Mean (SD)",[1]; Independent Video Raters,−1.6 (4.36)
same,"TETRAS-PS total score, change from baseline to Day 28, Median",[1]; Independent Video Raters,−1.5
same,"TETRAS-PS total score, change from baseline to Day 28, LS mean difference from placebo (95% CI)",[1]; Independent Video Raters,"0.5 (−1.5, 2.5)"
same,"TETRAS-PS total score, change from baseline to Day 28, LS mean (SE)",[1]; Independent Video Raters,−1.8 (0.81)
same,"TETRAS-PS total score, change from baseline to Day 28, LS mean difference from placebo (95% CI)",[1]; Investigator Rated,"−2.0 (−4.0, 0.0)"
same,"TETRAS-PS total score, change from baseline to Day 28, LS mean (SE)",[1]; Investigator Rated,−4.8 (0.80)
same,"TETRAS-PS total score, change from baseline to Day 28, Mean (SD)","[1]; subgroup No Concurrent Tremor Medication at Day 1, Independent Video Raters",−2.5 (5.33)
same,"Kinesia ONE total score, Median",[2]; Day 15,7.9
same,"Kinesia ONE total score, change from baseline, Median",[2]; Day 15,−1.1
same,Kinesia ONE score vs placebo,[2]; Day 15 and Day 28,did not show a significant difference
same,"Kinesia ONE total score, Median",[2]; Day 28,7.8
same,"Kinesia ONE total score, change from baseline, Median",[2]; Day 28,−0.7
same,"PGIC score 0-no change: subjects, number (%)",[3]; Day 15,11 (28%)
same,"PGIC score 1-minimally improved: subjects, number (%)",[3]; Day 15,17 (44%)
same,"PGIC score 2-much improved: subjects, number (%)",[3]; Day 15,8 (21%)
same,"PGIC score 3-very much improved: subjects, number (%)",[3]; Day 15,1 (3%)
same,"PGIC score (rescaled −3 to 3), Mean (SD)",[3]; Day 15,1 (1.0)
same,"PGIC score (rescaled −3 to 3), Median (minimum, maximum)",[3]; Day 15,"1 (−2, 3)"
same,"PGIC score −1-minimally worse: subjects, number (%)",[3]; Day 15,1 (3%)
same,"PGIC score −2-much worse: subjects, number (%)",[3]; Day 15,1 (3%)
same,"PGIC score −3-very much worse: subjects, number (%)",[3]; Day 15,0
same,"PGIC category 0 No change, number (%) of patients","[3]; Day 15, N = 39",11 (28%)
same,"PGIC category 1 Minimally improved, number (%) of patients","[3]; Day 15, N = 39",17 (44%)
same,"PGIC category 2 Much improved, number (%) of patients","[3]; Day 15, N = 39",8 (21%)
same,"PGIC category 3 Very much improved, number (%) of patients","[3]; Day 15, N = 39",1 (3%)
same,"PGIC category −1 Minimally worse, number (%) of patients","[3]; Day 15, N = 39",1 (3%)
same,"PGIC category −2 Much worse, number (%) of patients","[3]; Day 15, N = 39",1 (3%)
same,"PGIC category −3 Very much worse, number (%) of patients","[3]; Day 15, N = 39",0
same,"PGIC: No Change, number of subjects","[3]; Day 15, total 39",11
same,"PGIC: Worsened, number of subjects","[3]; Day 15, total 39",2
same,"PGIC score, LS mean (SE)",[3]; Day 15,0.9 (0.17)
same,"PGIC score, LS mean difference from placebo (95% CI)",[3]; Day 15,"0.7 (0.2, 1.1)"
same,"PGIC score 0-no change: subjects, number (%)",[3]; Day 28,14 (36%)
same,"PGIC score 1-minimally improved: subjects, number (%)",[3]; Day 28,10 (26%)
same,"PGIC score 2-much improved: subjects, number (%)",[3]; Day 28,7 (18%)
same,"PGIC score 3-very much improved: subjects, number (%)",[3]; Day 28,3 (8%)
same,"PGIC score (rescaled −3 to 3), Mean (SD)",[3]; Day 28,1 (1.3)
same,"PGIC score (rescaled −3 to 3), Median (minimum, maximum)",[3]; Day 28,"1 (−3, 3)"
same,"PGIC score −1-minimally worse: subjects, number (%)",[3]; Day 28,1 (3%)
same,"PGIC score −2-much worse: subjects, number (%)",[3]; Day 28,1 (3%)
same,"PGIC score −3-very much worse: subjects, number (%)",[3]; Day 28,1 (3%)
same,"PGIC: Improved, number of subjects","[3]; Day 28, total 37",20
same,"PGIC: No Change, number of subjects","[3]; Day 28, total 37",14
same,"PGIC: Worsened, number of subjects","[3]; Day 28, total 37",3
same,"PGIC score, LS mean (SE)",[3]; Day 28,0.8 (0.19)
same,"PGIC score, LS mean difference from placebo (95% CI)",[3]; Day 28,"0.4 (−0.1, 0.9)"
same,"PGIC category 0 No change, number (%) of patients","[3]; Day 28, N = 39",14 (36%)
same,"PGIC category 1 Minimally improved, number (%) of patients","[3]; Day 28, N = 39",10 (26%)
same,"PGIC category 2 Much improved, number (%) of patients","[3]; Day 28, N = 39",7 (18%)
same,"PGIC category 3 Very much improved, number (%) of patients","[3]; Day 28, N = 39",3 (8%)
same,"PGIC category −1 Minimally worse, number (%) of patients","[3]; Day 28, N = 39",1 (3%)
same,"PGIC category −2 Much worse, number (%) of patients","[3]; Day 28, N = 39",1 (3%)
same,"PGIC category −3 Very much worse, number (%) of patients","[3]; Day 28, N = 39",1 (3%)
same,integrated analysis of electrocardiogram outliers,"[4]; T-CALM, efficacious doses",no CVS safety signals
same,clinical laboratory parameters vs placebo,[4]; in vivo,No clinically meaningful differences
same,"vital signs, ECG, neurological and physical examinations",[4]; in vivo,No clinically significant abnormalities
same,effect of fed state on overall exposure (AUC),[5],does not appear to significantly impact overall exposure
same,effect of fed vs fasted state on absorption,[5],"impacts early absorption of the CX-8998, but does not appear to significantly impact late absorption"
